{"source": "PubChem BioAssay AID1259411", "about": "(Chemical Carcinogenesis Research Information System (CCRIS), 2018)", "system": "rodent carcinogenicity bioassays, tumor incidence", "experiment": "CCRIS carcinogenicity studies", "conditions": "Species: MOUSE", "procedure,_shortened": "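Archive of carcinogenicity, mutagenicity, tumor promotion and tumor inhibition results drawn from journals, NCI reports and other sources, expert-reviewed; covers 1985-2011 and is no longer updated.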", "note": "Calls of active or inactive are those of the source. The rule behind the calls is not given here."}
{"compound": "c1ccc2c(c1)cc1ccc3cccc4ccc2c1c34", "values": [{"measurement": "carcinogen call", "setting": "Strain/Sex: NIGP(S)/FEMALE, Route: SUBCUTANEOUS, Dose: 0, 0.5, 1 MG IN 1% AQUEOUS GELATIN INJECTED IN THE SCAPULAR REGION OF NEWBORN MICE ONCE (STUDY DURATION: 9 WK), Dose: 0, 0.5, 1 MG IN 1% AQUEOUS GELATIN INJECTED IN THE SCAPULAR REGION OF NEWBORN MICE ONCE (STUDY DURATION: 9 WK), Tumor Site: Type of Lesion: LUNG: ADENOMA", "result": "active; positive"}, {"measurement": "carcinogen call", "setting": "Strain/Sex: NIGP(S)/FEMALE, Route: SUBCUTANEOUS, Dose: 0, 40, 62.5, 125, 250, 500, 1000 UG INJECTED IN THE SCAPULAR REGION OF NEWBORN MICE ONCE (STUDY DURATION: 9 WK), Dose: 0, 40, 62.5, 125, 250, 500, 1000 UG INJECTED IN THE SCAPULAR REGION OF NEWBORN MICE ONCE (STUDY DURATION: 9 WK), Tumor Site: Type of Lesion: LUNG: ADENOMA", "result": "active; positive"}, {"measurement": "carcinogen call", "setting": "Strain/Sex: NIGP(S)/MALE, Route: SUBCUTANEOUS, Dose: 0, 0.5, 1 MG IN 1% AQUEOUS GELATIN INJECTED IN THE SCAPULAR REGION OF NEWBORN MICE ONCE (STUDY DURATION: 9 WK), Dose: 0, 0.5, 1 MG IN 1% AQUEOUS GELATIN INJECTED IN THE SCAPULAR REGION OF NEWBORN MICE ONCE (STUDY DURATION: 9 WK), Tumor Site: Type of Lesion: LUNG: ADENOMA", "result": "active; positive"}, {"measurement": "carcinogen call", "setting": "Strain/Sex: NIGP(S)/MALE, Route: SUBCUTANEOUS, Dose: 0, 40, 62.5, 125, 250, 500, 1000 UG INJECTED IN THE SCAPULAR REGION OF NEWBORN MICE ONCE (STUDY DURATION: 9 WK), Dose: 0, 40, 62.5, 125, 250, 500, 1000 UG INJECTED IN THE SCAPULAR REGION OF NEWBORN MICE ONCE (STUDY DURATION: 9 WK), Tumor Site: Type of Lesion: LUNG: ADENOMA", "result": "active; positive"}, {"measurement": "carcinogen call", "setting": "Strain/Sex: SENCAR/FEMALE, Route: DERMAL, Dose: 0, 12.6, 25.2, 50.2, 101, 202 UG/WK FOR 50-52 WK (STUDY DURATION: 1 YR), Dose: 0, 12.6, 25.2, 50.2, 101, 202 UG/WK FOR 50-52 WK (STUDY DURATION: 1 YR), Tumor Site: Type of Lesion: SKIN: CARCINOMA", "result": "active; positive"}, {"measurement": "carcinogen call", "setting": "Strain/Sex: SENCAR/MALE, Route: DERMAL, Dose: 0, 12.6, 25.2, 50.5, 101, 202 UG/WK FOR 50-52 WK (STUDY DURATION: 1 YR), Dose: 0, 12.6, 25.2, 50.5, 101, 202 UG/WK FOR 50-52 WK (STUDY DURATION: 1 YR), Tumor Site: Type of Lesion: SKIN: CARCINOMA", "result": "active; positive"}, {"measurement": "carcinogen call", "setting": "Strain/Sex: STRAIN-A/FEMALE, Route: GAVAGE, Dose: 0, 1, 2, 3 UMOL IN 0.1 ML COTTONSEED OIL 1/WK FOR 8 WK (STUDY DURATION: 26 WK), Dose: 0, 1, 2, 3 UMOL IN 0.1 ML COTTONSEED OIL 1/WK FOR 8 WK (STUDY DURATION: 26 WK), Tumor Site: Type of Lesion: LUNG: ADENOMA, FORESTOMACH: TUMOR", "result": "active; positive"}, {"measurement": "carcinogen call", "setting": "Strain/Sex: STRAIN-A/FEMALE, Route: INTRAPERITONEAL, Dose: 0, 1, 2, 3 UMOL IN 0.1 ML COTTONSEED OIL 1/WK FOR 8 WK (STUDY DURATION: 26 WK), Dose: 0, 1, 2, 3 UMOL IN 0.1 ML COTTONSEED OIL 1/WK FOR 8 WK (STUDY DURATION: 26 WK), Tumor Site: Type of Lesion: LUNG: ADENOMA, FORESTOMACH: TUMOR", "result": "active; positive"}, {"measurement": "carcinogen call", "setting": "Strain/Sex: STRAIN-A/FEMALE, Route: INTRATRACHEAL, Dose: 0, 0.5, 1 MG ON CHARCOAL POWDER INSTILLED 8 TIMES (STUDY DURATION: 13 WK), Dose: 0, 0.5, 1 MG ON CHARCOAL POWDER INSTILLED 8 TIMES (STUDY DURATION: 13 WK), Tumor Site: Type of Lesion: LUNG: SQUAMOUS CELL CARCINOMA OR ADENOCARCINOMA", "result": "active; positive"}, {"measurement": "carcinogen call", "setting": "Strain/Sex: STRAIN-A/FEMALE, Route: ORAL, Dose: 0, 16, 98 PPM IN DIET FOR 260 D (STUDY DURATION: 260 D), Dose: 0, 16, 98 PPM IN DIET FOR 260 D (STUDY DURATION: 260 D), Tumor Site: Type of Lesion: LUNG: TUMOR, FORESTOMACH: TUMOR", "result": "active; positive"}, {"measurement": "carcinogen call", "setting": "Strain/Sex: STRAIN-A/FEMALE, Route: SUBCUTANEOUS, Dose: 0, 0.5, 1 MG IN 1% AQUEOUS GELATIN INJECTED IN THE SCAPULAR REGION OF NEWBORN MICE ONCE (STUDY DURATION: 9 WK), Dose: 0, 0.5, 1 MG IN 1% AQUEOUS GELATIN INJECTED IN THE SCAPULAR REGION OF NEWBORN MICE ONCE (STUDY DURATION: 9 WK), Tumor Site: Type of Lesion: LUNG: ADENOMA", "result": "active; positive"}, {"measurement": "carcinogen call", "setting": "Strain/Sex: STRAIN-A/FEMALE, Route: SUBCUTANEOUS, Dose: 0, 40, 62.5, 125, 250, 500, 1000 UG FOR 9 WK (STUDY DURATION: 9 WK), Dose: 0, 40, 62.5, 125, 250, 500, 1000 UG FOR 9 WK (STUDY DURATION: 9 WK), Tumor Site: Type of Lesion: LUNG: ADENOMA", "result": "active; positive"}, {"measurement": "carcinogen call", "setting": "Strain/Sex: STRAIN-A/FEMALE, Route: SUBCUTANEOUS, Dose: 0, 40, 62.5, 125, 250, 500, 1000 UG INJECTED IN THE SCAPULAR REGION OF NEWBORN MICE ONCE (STUDY DURATION: 9 WK), Dose: 0, 40, 62.5, 125, 250, 500, 1000 UG INJECTED IN THE SCAPULAR REGION OF NEWBORN MICE ONCE (STUDY DURATION: 9 WK), Tumor Site: Type of Lesion: LUNG: ADENOMA", "result": "active; positive"}, {"measurement": "carcinogen call", "setting": "Strain/Sex: STRAIN-A/MALE, FEMALE, Route: INTRAPERITONEAL, Dose: 2 MG, 1/WK, Tumor Site: Type of Lesion: PERITONEAL CAVITY: FIBROSARCOMA", "result": "active; positive"}, {"measurement": "carcinogen call", "setting": "Strain/Sex: STRAIN-A/MALE,FEMALE, Route: INTRAPERITONEAL, Tumor Site: Type of Lesion: PERITONEAL CAVITY: FIBROSARCOMA", "result": "active; positive"}, {"measurement": "carcinogen call", "setting": "Strain/Sex: STRAIN-A/MALE, Route: INTRAPERITONEAL, Dose: 0-200 MG/KG IN TRICAPRYLIN ONCE (STUDY DURATION: 8 MO), Tumor Site: Type of Lesion: LUNG: ADENOMA", "result": "active; positive"}, {"measurement": "carcinogen call", "setting": "Strain/Sex: STRAIN-A/MALE, Route: INTRAPERITONEAL, Dose: 0, 5, 10, 50, 100, 200 MG/KG BW ONCE (STUDY DURATION: 8 MO), Dose: 0, 5, 10, 50, 100, 200 MG/KG BW ONCE (STUDY DURATION: 8 MO), Tumor Site: Type of Lesion: LUNG: ADENOMA", "result": "active; positive"}, {"measurement": "carcinogen call", "setting": "Strain/Sex: STRAIN-A/MALE, Route: SUBCUTANEOUS, Dose: 0, 0.5, 1 MG IN 1% AQUEOUS GELATIN INJECTED IN THE SCAPULAR REGION OF NEWBORN MICE ONCE (STUDY DURATION: 9 WK), Dose: 0, 0.5, 1 MG IN 1% AQUEOUS GELATIN INJECTED IN THE SCAPULAR REGION OF NEWBORN MICE ONCE (STUDY DURATION: 9 WK), Tumor Site: Type of Lesion: LUNG: ADENOMA", "result": "active; positive"}, {"measurement": "carcinogen call", "setting": "Strain/Sex: STRAIN-A/MALE, Route: SUBCUTANEOUS, Dose: 0, 40, 62.5, 125, 250, 500, 1000 UG FOR 9 WK (STUDY DURATION: 9 WK), Dose: 0, 40, 62.5, 125, 250, 500, 1000 UG FOR 9 WK (STUDY DURATION: 9 WK), Tumor Site: Type of Lesion: LUNG: ADENOMA", "result": "active; positive"}, {"measurement": "carcinogen call", "setting": "Strain/Sex: STRAIN-A/MALE, Route: SUBCUTANEOUS, Dose: 0, 40, 62.5, 125, 250, 500, 1000 UG INJECTED IN THE SCAPULAR REGION OF NEWBORN MICE ONCE (STUDY DURATION: 9 WK), Dose: 0, 40, 62.5, 125, 250, 500, 1000 UG INJECTED IN THE SCAPULAR REGION OF NEWBORN MICE ONCE (STUDY DURATION: 9 WK), Tumor Site: Type of Lesion: LUNG: ADENOMA", "result": "active; positive"}, {"measurement": "carcinogen call", "setting": "Strain/Sex: SWISS/FEMALE, Route: DERMAL, Dose: 0, 1, 4, 8 NMOL IN 100 µL ACETONE 2/WK FOR 40 WK (STUDY DURATION: 48 WK), Dose: 0, 1, 4, 8 NMOL IN 100 µL ACETONE 2/WK FOR 40 WK (STUDY DURATION: 48 WK)", "result": "inactive; negative"}]}
